The subject of series [1] is human pancreatic cancer (PANC1) cells. The experiment in a line: MTT cell viability assay, PANC1. It is filed as cell-based. As to conditions: 24 hours. The protocol:
Cell lines and culture conditions: A human pancreatic cancer cell line PANC1 and human colon cancer cell line HCT116 were obtained from National Centre for Cell Science (NCCS), Pune, India. The PANC1 cells were sub-cultured in Dulbecco's Modified Eagle's Medium (DMEM) supplemented with 10% FBS at 5% C02 and 37° C. The HCT116 cells were sub-cultured in McCoy's 5A media supplemented with 10% FBS at 5% CO2 and 37° C. […] The cells were allowed to attach 70% to the surface prior to treatment. […] Suspensions were aspirated 10 times before treatment. Cells treated with vehicle control were used as a control. Cell viability assay: PANC1 and HCT116 cells ([…] cells/ml) were seeded in 96-well plates and exposed to different individual-drug treated groups with varying concentrations (0, 20, 40, 60, 80, 100, 120, 140, 160, 180 and 200 μM) for a period of 24 hours. The individual-treated groups include Group I: 5 Fluorouracil (5FU)-treated PANC1 and HCT116 cells; Group II: MET-treated PANC1 and HCT116 cells; Group III: EGCG-treated PANC1 and HCT116 cells and Group IV: 5FU+[…] PANC1 and HCT116 cells.

Series [2] in a line: LC/MS of drugs and active metabolites in plasma and brain (blood brain barrier). The format is in vivo, rat. As to conditions: for Detected mass in LC-MS Brain / Detected mass in LC-MS Plasma: NA = not detected. The protocol:
T, M & E (Sigma Aldrich, St. Louis, USA) were dissolved in sterile water and administered intra peritoneally for 7 days (from day 21 to day 27; where the day of tumor induction is considered day 0) to a rat with the dose specified in Table-4 (TME: 50+80+150 mg/kg body weight). After 7 days of treatment (on day 28), blood (plasma) was collected and the rat was euthanized, immediately the brain tissue was collected and stored at −80° C. The brain tissue was then processed accordingly to measure active metabolites through LC/MS.
To 100 μl of plasma or brain (0.5 g crushed in 0.5 mL of sterile water), 20 μl of the working internal standard solution was added. The samples were deproteinised with acetonitrile and the supernatant (100 μl) was injected into the chromatographic system. For the brain, as described above, ciprofloxacin solution (20 μl) was added to 100 μl of crushed brain. Then, repeating the plasma sample process, 20 μl of the solution was injected into the chromatographic system.

Series [3] concerns human hepatocellular carcinoma (HepG2) cells. The experiment in a line: MTT cell viability assay, HepG2. It is filed as cell-based. As to conditions: 24 hours. Here is the method:
Cell lines and culture conditions. A human hepatocellular carcinoma (HepG2) and ovarian cancer (SKOV3) cells were obtained from National Centre for Cell Science (NCCS), Pune, India. The cells HepG2 and SKOV3 were sub-cultured in Eagle's Minimum Essential Medium (EMEM) and McCoy's 5a supplemented with 10% FBS at 5% CO2 and 37° C. […] The cells were allowed to attach 70% to the surface prior to treatment. A stock solution of all the drugs (10 mg/ml) was made in distilled H2O and diluted to the required concentrations. Suspensions were aspirated 10 times before treatment. Cells treated with vehicle control were used as a control.

Series [4] deals with human breast cancer (MDA-MB-453) cells. Briefly: MTT cell viability assay, MDA-MB-453. It is filed as cell-based. As to conditions: 24 hours. Here is the method:
Cell lines and culture conditions: A human breast cancer cell line MDA-MB-453 and human bone cancer cell line SaoS2 were obtained from National Centre for Cell Science (NCCS), Pune, India. The MDA-MB-453 cells were sub-cultured in Dulbecco's Modified Eagle's Medium (DMEM) supplemented with 10% FBS at 5% CO2 and 37° C. The SaoS2 cells were sub-cultured in McCoy's 5A media supplemented with 10% FBS at 5% CO2 and 37° C. […] The cells were allowed to attach 70% to the surface prior to treatment. […] Suspensions were aspirated 10 times before treatment. Cells treated with vehicle control were used as a control. Cell viability assay: MDA-MB-453 and SaoS2 cells (5×10^3 cells/ml) were seeded in 96-well plates and exposed to different individual-drug treated groups with varying concentrations (0, 20, 40, 60, 80, 100, 120, 140, 160, 180 and 200 μM) for a period of 24 hours.

For series [5], the system named is U87MG human glioma cell line. Briefly: MTT cell viability assay, U87MG. The format is cell-based. Here is the method: (§1) Cell lines and culture conditions. A human glioma cell line, U87MG, a rat glioma cell line, C6, and normal HEK293T (Human Embryonic Kidney) cells were obtained from National Centre for Cell Science (NCCS), Pune, India. The cells were sub-cultured in Dulbecco's Modified Eagle's Medium (DMEM) supplemented with 10% FBS at 5% CO2 and 37° C. At 85% confluence, the cells were harvested using 0.25% trypsin and seeded in 25 cm^2 flasks, 96 well, and 6-well plates, according to the experiment being performed. The cells were allowed to attach 70% to the surface prior to treatment. A stock solution of all the drugs (10 mg/ml) was made in a vehicle and diluted to the required concentrations. Suspensions were aspirated 10 times before treatment. Cells treated with vehicle control were used as a control.
(§2) Cell viability assay. U87MG and C6 cells (5×10^3 cells/ml) were seeded in 96-well plates and exposed to different individual-drug treated groups with varying concentrations (0, 10, 40, 80, 120, and 160 μM) for a period of 24 hours, whereas HEK293T cells (5×10^3 cells/ml) were seeded at the inhibitory concentration (IC) at 50% of drugs, either alone or in combination. The individual-treated groups include Group I: untreated control glioma cells; Group II: TMZ-treated glioma cells; Group III: MET-treated glioma cells; and Group IV: EGCG-treated glioma cells.
(§3) After a 24 hour treatment period, the cells were allowed to react with MTT for 4 hours in dark at 37° C. At the end of the incubation period, the dark purple formazan crystals formed were solubilized with DMSO and the absorbance was measured spectrophotometrically at 595 nm (Molecular Devices Spectra-Max M5, USA). The experiments were repeated at least three times. To determine the cell viability, the percentage of viability was calculated as follows:
(§4) % viability=[(Optical density {OD} of treated cells−OD of Blank)/(OD of control−OD of blank)]×100.
(§5) Calculation of IC50 value. The IC50 of a drug was determined using y=m(x)+c equation (where: ‘y’ & ‘x’ are the respective coordinates of y & x-axis, ‘m’ is the slope and ‘c’ is the constant) derived from the trendlines of each scattered plots MMT assay. […] The IC50 and IC25 were also calculated for the dual combinations. The IC50 for the triple combination was calculated by keeping the IC25 of the dual-combination constant, and the third drug was used in varying concentrations (0, 10, 40, 80, 120, and 160 μM) (Table 1).
(§6) Combination index of drugs. According to the Chou-Talalay method, The statistical Combination Index (CI) of the drugs was performed according to the Chou-Talay method (Ma et al, Stem Cell Reports, 2017 9(6):1948-1960) to determine whether various drug combinations were synergistic, additive, or antagonistic, as shown in Table 1. This was performed for Groups V-IX using the following formula:
(§7) Combination index (CI) of Drugs 1 & 2=(IC50 of drug-1 in combination/IC50 of drug-1 individually)+(IC50 of drug-2 in combination/IC50 of drug-2 individually).

The test system of series [6] is HEK293T (Human Embryonic Kidney) cells. Briefly: Trypan blue exclusion cytotoxicity on normal cell line. As to conditions: treated at IC50 values determined in U87MG and C6, 24 hours. It is filed as cell-based. The protocol:
Cytotoxicity on a normal cell line.
Furthermore, to check for the cytotoxicity of the drugs, a trypan blue dye exclusion assay was performed on a normal cell line, HEK293T, using the IC50 values of each drug, individually and in combination, as determined in U87MG and C6 cells and shown in Table 2.

In a further series the test system is VEGF. Briefly: Immunohistochemistry of tumor sections, VEGF. It is filed as in vivo, rat. Conditions: i.p. 7 days; tumor-control 73.58%. Here is the method: Immunohistochemistry. For immunohistochemistry (IHC) analysis, 4 μm thick tissue sections were deparaffinized in xylene and hydrated by immersing in a series of graded ethanol concentration (100%, 95%, 75% and 50%). Endogenous peroxidase activity was blocked by incubating sections in 3% H2O2 solution prepared in methanol at room temperature for 10 minutes and were washed with PBS twice for 5 minutes each. Antigen retrieval was performed by immersing the slides in 300 ml of retrieval buffer (10 mM citrate buffer, pH 6.0) for one hour at 100° C. and were rinsed twice in PBS. Sections were then incubated with approximately 100 μl diluted primary antibodies of Ki67 (1:100 dilution, Elabscience, Wuhan, China) and Vascular Endothelial Growth Factor (VEGF) (1:100 dilution, Elabscience, Wuhan, China) for 30 minutes at room temperature. The slides were then washed twice with PBS and were then incubated with approximately 100 μl of diluted secondary antibody (Cat No. E-IR-R213, Elabscience, Wuhan, China) at room temperature for 30 minutes. Slides were then washed in PBS for 5 minutes, followed by incubation with approximately 100 μl diluted Horse Radish Peroxidase (HRP) conjugate for 30 minutes. […] The staining intensities were quantified using IHC Profiler, a plugin in ImageJ software, to determine the H-score (Histo score).

A further series relates to C6 rat glioma cell line. The experiment in a line: MTT cell viability assay, C6. The format is cell-based. Here is the method:
as §1, §2, §3, §4, §5, §6, §7

A further series deals with Ki67. Briefly: Immunohistochemistry of tumor sections, Ki67. As to conditions: i.p. 7 days; tumor-control 36.73%. It is filed as in vivo, rat.
[7] abbreviates: individually treated T, M and E, i.p. 7 days.
The mark [8] stands for this setting: triple combination TME 50+80+150 mg/kg i.p. 7 days.
The mark [9] stands for this setting: as used in the triple combination for CI.

The structures appear in SMILES notation.

As for `O=c1[nH]cc(F)c(=O)[nH]1` [5FU, 5-Fluorouracil], in series [1], the “cell viability (MTT), in words” value is on record as “reduction in cell viability in a dose-dependent fashion”.
Take `NC(=O)c1[nH]cnc1N` [AIC, 5-amino-imidazole-4-carboxamide]: the figures for the “Detected mass in LC-MS Brain” value in [2] (setting [7]) and in series [2] (setting [8]) were 123.09 and 123.05, respectively. For the same compound, the “Detected mass in LC-MS Plasma” value in series [2] (setting [7]) and in [2] (setting [8]) was 127.02 throughout.
In the case of `CNC(=O)c1cc(Oc2ccc(NC(=O)Nc3ccc(Cl)c(C(F)(F)F)c3)cc2)ccn1` [SOR, Sorafenib], the “cell viability (MTT), in words” value in [3] is given as “reduction in cell viability in a dose-dependent fashion”.
Take `COc1cccc2c1C(=O)c1c(O)c3c(c(O)c1C2=O)C[C@@](O)(C(=O)CO)C[C@@H]3O[C@H]1C[C@H](N)[C@H](O)[C@H](C)O1` [DOX, Doxorubicin]: the “cell viability (MTT), in words” value in series [4] is “reduction in cell viability in a dose-dependent fashion”.
Take `Cn1nnc2c(C(N)=O)ncn2c1=O` [TMZ, 3-methyl-3-oxoimidazo[5,1-d] [1,2,3,5] tetrazine-8-carboxamide]: the IC50 was found to be 77 ± 1.14 µM in [5] (Homo sapiens, U-87 MG, individual drug, 24 hours, mean ± SD, no unit in table, test concentrations given in μM, read-out: Inhibitory Concentration at 50% (IC50) U87MG Cells) and 72 ± 1.32 µM in the series with C6 rat glioma cell line (Rattus norvegicus, C6, individual drug, 24 hours, mean ± SD, no unit in table, test concentrations given in μM, read-out: Inhibitory Concentration at 50% (IC50) C6 Cells). For the same compound, in [5] (setting [9]), the “IC25 U87MG” value was 18.94 µM. The “toxicity in normal HEK293T cells” value in series [6] was “higher toxicity”. The “cytoplasmic positivity for VEGF (H-score)” value with VEGF amounted to 25.83%. The “IC25 C6” value with C6 rat glioma cell line (setting [9]) came out at 31.76 µM. The “transport across the blood brain barrier, in words” value in [2] (administered individually and in combination) is on record as “crossed BBB in the form of their active metabolites”. Further, in series [2] (setting [8]), the “Detected mass in LC-MS Plasma” value came to 198.93. In the series on Ki67, the “Ki67 nuclear positivity rate” value was 13.14%.

The values above are taken from US20250275938A1, “COMPOSITIONS AND METHODS FOR TREATMENT OF CANCER” (SCIROSBIO (FZC), priority 2022, published 2025).
